Measurements published in patent US6608090B1, “Benzothiophenes with novel basic side chains” (Eli Lilly and Company, priority 1995, dated 2003).

What was measured:
[1] = tested on: ovariectomized (OVX) female Sprague Dawley rats; test: Serum cholesterol in ovariectomized rats (post-menopausal model), 4 days of daily dosing; assay type: in vivo, rat; conditions: for Cholest. % dec. OVX: oral, daily for 4 days
Method: (§1) In the examples illustrating the methods, a post-menopausal model was used in which effects of different treatments upon circulating lipids were determined.
(§2) Seventy-five day old female Sprague Dawley rats (weight range of 200 to 225 g) were obtained from Charles River Laboratories (Portage, Mich.). The animals were either bilaterally ovariectomized (OVX) or exposed to a Sham surgical procedure at Charles River Laboratories, and then shipped after one week. Upon arrival, they were housed in metal hanging cages in groups of 3 or 4 per cage and had ad libitum access to food (calcium content approximately 0.5%) and water for one week. Room temperature was maintained at 22.2°±1.70° C. with a minimum relative humidity of 40%. The photoperiod in the room was 12 hours light and 12 hours dark.
Dosina Reaimen Tissue Collection. After a one week acclimation period (therefore, two weeks post-OVX) daily dosing with test compound was initiated. 17α-ethynyl estradiol or the test compound were given orally, unless otherwise stated, as a suspension in 1% carboxymethylcellulose or dissolved in 20% cyclodextrin. Animals were dosed daily for 4 days. Following the dosing regimen, animals were weighed and anesthetized with a ketamine: xylazine (2:1, V:V) mixture and a blood sample was collected by cardiac puncture. The animals were then sacrificed by asphyxiation with CO2, the uterus was removed through a midline incision, and a wet uterine weight was determined.
Cholesterol Analysis. Blood samples were allowed to clot at room temperature for 2 hours, and serum was obtained following centrifugation for 10 minutes at 3000 rpm. Serum cholesterol was determined using a Boehringer Mannheim Diagnostics high performance cholesterol assay. Briefly the cholesterol was oxidized to cholest-4-en-3-one and hydrogen peroxide. The hydrogen peroxide was then reacted with phenol and 4-aminophenazone in the presence of peroxidase to produce a p-quinone imine dye, which was read spectrophotemetrically at 500 nm. Cholesterol concentration was then calculated against a standard curve. The entire assay was automated using a Biomek Automated Workstation.

[2] = tested on: ovariectomized (OVX) female Sprague Dawley rats; test: Wet uterine weight in ovariectomized rats, 4 days of daily dosing; conditions: rat, in vivo, po, 0.1 mg/kg/day
Method: as §1, §2
Dosina Reaimen Tissue Collection. After a one week acclimation period (therefore, two weeks post-OVX) daily dosing with test compound was initiated. 17α-ethynyl estradiol or the test compound were given orally, unless otherwise stated, as a suspension in 1% carboxymethylcellulose or dissolved in 20% cyclodextrin. Animals were dosed daily for 4 days. […] The animals were then sacrificed by asphyxiation with CO2, the uterus was removed through a midline incision, and a wet uterine weight was determined.

[3] = tested on: uteri of ovariectomized (OVX) female Sprague Dawley rats; test: Uterine Eosinophil Peroxidase (EPO) Assay; conditions: rat, in vivo
ovariectomized rats = test: Osteoporosis Test Procedure: femur density in ovariectomized rats, 35 days; assay type: in vivo, rat; conditions: oral, in 20% hydroxypropyl β-cyclodextrin, daily for 35 days
Method: Following the General Preparation Procedure, infra, the rats are treated daily for 35 days (6 rats per treatment group) and sacrificed by decapitation on the 36th day. The 35 day time period is sufficient to allow maximal reduction in bone density, measured as described herein. At the time of sacrifice, the uteri are removed, dissected free of extraneous tissue, and the fluid contents are expelled before determination of wet weight in order to confirm estrogen deficiency associated with complete ovariectomy. […] The uteri are then placed in 10% neutral buffered formalin to allow for subsequent histological analysis. The right femurs are excised and scanned at the distal metaphysis 1 mm from the patellar groove with single photon absorptiometry. Results of the densitometer measurements represent a calculation of bone density as a function of the bone mineral content and bone width. In accordance with the above procedures, compounds of the present invention and ethynyl estradiol (EE2) in 20% hydroxypropyl β-cyclodextrin are orally administered to test animals.

CC1CCN(CCOc2ccc(C(=O)c3c(-c4ccc(O)cc4)sc4cc(O)ccc34)cc2)CC1
Cholest. % dec. OVX ([1]; 0.1 mg/kg): 43.2% | Cholest. % dec. OVX ([1]; 1 mg/kg): 71.0% | Cholest. % dec. OVX ([1]; 10 mg/kg): 51.6%

CC1(C)CCCN(CCOc2ccc(C(=O)c3c(-c4ccc(O)cc4)sc4cc(O)ccc34)cc2)C1
Cholest. % dec. OVX ([1]; 0.1 mg/kg): 25.1% | Cholest. % dec. OVX ([1]; 1 mg/kg): 58.6% | Cholest. % dec. OVX ([1]; 10 mg/kg): 50.9%

CC1(C)CCN(CCOc2ccc(C(=O)c3c(-c4ccc(O)cc4)sc4cc(O)ccc34)cc2)CC1
Cholest. % dec. OVX ([1]; 0.1 mg/kg): 14.5% | Cholest. % dec. OVX ([1]; 1 mg/kg): 25.9% | Cholest. % dec. OVX ([1]; 10 mg/kg): 65.8%

C[C@@H]1C[C@H](C)CN(CCOc2ccc(C(=O)c3c(-c4ccc(O)cc4)sc4cc(O)ccc34)cc2)C1
Cholest. % dec. OVX ([1]; 0.1 mg/kg): 13.8% | Cholest. % dec. OVX ([1]; 1 mg/kg): 66.8% | Cholest. % dec. OVX ([1]; 10 mg/kg): 85.5%

CC1CCCC(C)N1CCOc1ccc(C(=O)c2c(-c3ccc(O)cc3)sc3cc(O)ccc23)cc1 (stereo not shown)
Cholest. % dec. OVX ([1]; 0.1 mg/kg): 41.5% | Cholest. % dec. OVX ([1]; 1 mg/kg): 62.3% | Cholest. % dec. OVX ([1]; 10 mg/kg): 76.9%

COC[C@@H]1CCCN1CCOc1ccc(C(=O)c2c(-c3ccc(O)cc3)sc3cc(O)ccc23)cc1
Cholest. % dec. OVX ([1]; 0.1 mg/kg): 30.2% | Cholest. % dec. OVX ([1]; 1 mg/kg): 65.4% | Cholest. % dec. OVX ([1]; 10 mg/kg): 80.3%

O=C(c1ccc(OCCN2CCC[C@@H]2CO)cc1)c1c(-c2ccc(O)cc2)sc2cc(O)ccc12
Cholest. % dec. OVX ([1]; 0.1 mg/kg): 42.0% | Cholest. % dec. OVX ([1]; 1 mg/kg): 40.6% | Cholest. % dec. OVX ([1]; 10 mg/kg): 71.9%

O=C(c1ccc(OCCN2CCC[C@H]2CO)cc1)c1c(-c2ccc(O)cc2)sc2cc(O)ccc12
Cholest. % dec. OVX ([1]; 0.1 mg/kg): 46.7% | Cholest. % dec. OVX ([1]; 1 mg/kg): 73.7% | Cholest. % dec. OVX ([1]; 10 mg/kg): 74.5%

CC1CC(C)CN(CCOc2ccc(C(=O)c3c(-c4ccc(O)cc4)sc4cc(O)ccc34)cc2)C1 (racemic)
Cholest. % dec. OVX ([1]; 0.1 mg/kg): 50.6% | Cholest. % dec. OVX ([1]; 1 mg/kg): 69.7% | Cholest. % dec. OVX ([1]; 10 mg/kg): 81.6%

C#C[C@]1(O)CC[C@H]2[C@@H]3CCc4cc(O)ccc4[C@H]3CC[C@@]21C [EE2, 17α-ethynyl estradiol]
uterine weight compared with ovariectomized test animals (in words) [2]: substantially greater | eosinophil infiltration into the uterus (stromal layer), in words [3]: substantial, expected increase in esosinophils infiltration | loss of femur density (bone loss) after ovariectomy, in words (ovariectomized rats): prevents this loss | effect on serum cholesterol (in words) ([1]; orally administered at 0.1 mg/Kg/day): caused a decrease in serum cholesterol
